Holding throughout (type): biochemical
One assay addresses T1, MAO-A (Homo sapiens, UniProt P21397).
T1 construct: purchased Sigma-Aldrich
T1 sequence (P21397 1-527): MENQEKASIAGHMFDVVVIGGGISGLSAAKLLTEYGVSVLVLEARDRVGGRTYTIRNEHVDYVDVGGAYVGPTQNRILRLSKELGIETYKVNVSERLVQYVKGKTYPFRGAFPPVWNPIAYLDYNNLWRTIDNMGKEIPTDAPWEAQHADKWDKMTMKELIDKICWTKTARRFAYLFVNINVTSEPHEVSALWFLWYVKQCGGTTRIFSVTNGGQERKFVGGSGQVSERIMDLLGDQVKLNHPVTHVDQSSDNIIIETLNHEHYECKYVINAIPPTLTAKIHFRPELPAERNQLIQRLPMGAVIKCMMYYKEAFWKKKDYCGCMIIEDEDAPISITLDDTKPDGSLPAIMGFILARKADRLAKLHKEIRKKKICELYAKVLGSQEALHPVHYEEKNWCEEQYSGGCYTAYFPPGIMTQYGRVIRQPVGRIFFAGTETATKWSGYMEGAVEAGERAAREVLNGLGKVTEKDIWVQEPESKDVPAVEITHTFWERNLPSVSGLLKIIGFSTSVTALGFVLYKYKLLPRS
The assay can be described thus: MAO-Glo assay, MAO-A inhibitory activity. Particulars: for IC50: Promega V1401, MAO-A 18 units/mL, substrate 160 µM, room temperature, 60 min, chemiluminescence, means ± S.D. of at least three experiments. The method, then: (§1) We assayed for the LSD1 inhibitory activities of novel peptides 2a–c. The assay was performed with an LSD1 Fluorometric Drug Discovery Kit (Enzo Life Sciences, New York, NY, USA, BML-AK544-0001). […] Next, we examined the time-dependency of LSD1 inhibition by peptides 2a–c. […] We also assayed for the inhibitory activities of monoamine oxidases (MAOs), which are FAD-dependent oxidases associated with neurotransmitter metabolism, to investigate the selectivity toward LSD1. For this investigation, we used a MAO-Glo^TM Assay System (Promega, Madison, WI, USA, V1401).
(§2) Assays for MAO inhibitory activity were carried out according to the supplier’s protocol using a MAO-Glo^TM Assay System (Promega, V1401). […] Reactions were stopped after 60 min by adding reconstituted Luciferin Detection Reagent (50 µL/well). Then, 20 min after the addition of this reagent, the chemiluminescence of the wells was measured with a 2030 ARVO^TM X3 Multilabel Reader (PerkinElmer). For data processing, the same procedure as that for LSD1 inhibitory activity was used.

Another assay addresses T2, LSD1 (Homo sapiens, UniProt O60341).
T2 construct: purchased Enzo Life Sciences BML-AK544-0001
As to the kind of experiment: LSD1 Fluorometric Drug Discovery Kit, LSD1 inhibitory activity. As to conditions: for IC50: Enzo BML-AK544-0001 kit, 15 min pre-incubation with LSD1 (0.5 µg/well), room temperature, H3K4me2 peptide 20 µM, 30 min, fluorescence 540/590 nm, means ± S.D. of at least three experiments; for LSD1 inhibitory activity: comparison within Table 1. The method, then: The assay was performed with an LSD1 Fluorometric Drug Discovery Kit (Enzo Life Sciences, New York, NY, USA, BML-AK544-0001). […] We also assayed for the inhibitory activities of monoamine oxidases (MAOs), which are FAD-dependent oxidases associated with neurotransmitter metabolism, to investigate the selectivity toward LSD1. For this investigation, we used a MAO-Glo^TM Assay System (Promega, Madison, WI, USA, V1401).
Inhibitors were pre-incubated with LSD1 (0.5 µg/well; room temperature; 15 min) before reactions were initiated by the addition of H3K4me2 peptide (2.3 µg/well, 20 µM) into all wells except the blank. After incubation (room temperature; 30 min), CeLLestial^TM Red and HRP in the assay buffer were added and the incubation was prolonged (room temperature; 5 min). […] IC50 values were determined by regression analysis of the concentration/inhibition data.

The target of a further assay is T3, MAO-B (Homo sapiens, UniProt P27338).
T3 construct: purchased Sigma-Aldrich
T3 sequence (P27338 1-520): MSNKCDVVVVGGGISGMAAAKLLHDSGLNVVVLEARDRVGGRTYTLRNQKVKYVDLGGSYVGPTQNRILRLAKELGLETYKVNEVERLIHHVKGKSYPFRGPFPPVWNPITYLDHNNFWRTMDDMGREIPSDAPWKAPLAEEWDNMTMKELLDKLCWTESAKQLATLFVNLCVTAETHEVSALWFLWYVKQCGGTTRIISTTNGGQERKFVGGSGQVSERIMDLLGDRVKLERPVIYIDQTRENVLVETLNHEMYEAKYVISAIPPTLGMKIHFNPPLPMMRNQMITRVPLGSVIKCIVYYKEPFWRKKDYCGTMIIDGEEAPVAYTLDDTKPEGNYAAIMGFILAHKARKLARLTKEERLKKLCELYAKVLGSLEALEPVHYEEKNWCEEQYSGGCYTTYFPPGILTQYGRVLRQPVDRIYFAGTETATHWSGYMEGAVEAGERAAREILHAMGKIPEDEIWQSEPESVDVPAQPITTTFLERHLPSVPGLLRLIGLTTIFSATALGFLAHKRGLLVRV
The assay can be described thus: MAO-Glo assay, MAO-B inhibitory activity. Particulars: Promega V1401; MAO-B 6 units/mL, substrate 16 µM; room temperature, 60 min; chemiluminescence; means ± S.D. of at least three experiments. On the procedure: as §1, §2

*1 amine or outer side, *2 acyl side, *3 side chain or, on linkers, in order; H or OH if unused. Where a SMILES comes first, the peptide text is derived from it. [ ]: non-standard residue; d: D form. Lys((1R,2S)-2-Ph-cPr) = N[C@@H](CCCCN[C@@H]1C[C@H]1c1ccccc1)C(=O)O; X1 = O=C(C1(N[*:1])C2CC3CC(C2)CC1C3)[*:2]; Ac6c = NC1(C(=O)O)CCCCC1; Aib = CC(C)(N)C(=O)O

As for `N[C@@H]1C[C@H]1c1ccccc1` (relative stereo) [PCPA, trans-2-phenylcyclopropylamine, reference compound], the “MAO-A inactivation” value at MAO-A (peptides at 10 µM, PCPA as positive control) is “inactivated both MAO-A and MAO-B”.

Take `C[C@H](N)C(=O)N[C@@H](CCCNC(=N)N)C(=O)NC1(C(=O)N[C@@H](CCCCN[C@@H]2C[C@H]2c2ccccc2)C(=O)NC2(C(=O)N[C@H](C(=O)N[C@@H](C)C(=O)N[C@@H](CCCNC(=N)N)C(=O)N[C@@H](CCCCN)C(=O)N[C@@H](CO)C(=O)N[C@H](C(=O)O)[C@@H](C)O)[C@@H](C)O)C3CC4CC(C3)CC2C4)C2CC3CC(C2)CC1C3` (stereo partly drawn) [2c] (H-AR[X1][Lys((1R,2S)-2-Ph-cPr)][X1]TARKST-OH; C-terminus assumed): the IC50 at LSD1 was 0.0724 ± 0.004 µM; against MAO-A it was over 10 µM; at MAO-B, over 10 µM.

On to `C[C@H](N)C(=O)N[C@@H](CCCNC(=N)N)C(=O)N[C@H](C(=O)N[C@@H](CCCCN[C@@H]1C[C@H]1c1ccccc1)C(=O)N[C@@H](CCC(N)=O)C(=O)N[C@H](C(=O)N[C@@H](C)C(=O)N[C@@H](CCCNC(=N)N)C(=O)N[C@@H](CCCCN)C(=O)N[C@@H](CO)C(=O)N[C@H](C(=O)O)[C@@H](C)O)[C@@H](C)O)[C@@H](C)O` [peptide 1, reference compound], for which the IC50 was 0.126 ± 0.002 µM against LSD1, over 10 µM on MAO-A and over 10 µM against MAO-B. Also, on LSD1, the “LSD1 inhibitory activity” value is recorded as “inactivated LSD1 potently compared to PCPA”.

In the case of `C[C@H](N)C(=O)N[C@@H](CCCNC(=N)N)C(=O)NC(C)(C)C(=O)N[C@@H](CCCCN[C@@H]1C[C@H]1c1ccccc1)C(=O)NC(C)(C)C(=O)N[C@H](C(=O)N[C@@H](C)C(=O)N[C@@H](CCCNC(=N)N)C(=O)N[C@@H](CCCCN)C(=O)N[C@@H](CO)C(=O)N[C@H](C(=O)O)[C@@H](C)O)[C@@H](C)O` [peptide 2a] (H-AR[Aib][Lys((1R,2S)-2-Ph-cPr)][Aib]TARKST-OH; C-terminus assumed), the IC50 at LSD1 is 0.0891 ± 0.0053 µM; against MAO-A, over 10 µM; against MAO-B it was over 10 µM.

As for `C[C@H](N)C(=O)N[C@@H](CCCNC(=N)N)C(=O)NC1(C(=O)N[C@@H](CCCCN[C@@H]2C[C@H]2c2ccccc2)C(=O)NC2(C(=O)N[C@H](C(=O)N[C@@H](C)C(=O)N[C@@H](CCCNC(=N)N)C(=O)N[C@@H](CCCCN)C(=O)N[C@@H](CO)C(=O)N[C@H](C(=O)O)[C@@H](C)O)[C@@H](C)O)CCCCC2)CCCCC1` [peptide 2b] (H-AR[Ac6c][Lys((1R,2S)-2-Ph-cPr)][Ac6c]TARKST-OH; C-terminus assumed), the results for the IC50 at LSD1, against MAO-A and on MAO-B were 0.0584 ± 0.0025 µM, over 10 µM and over 10 µM, respectively. The same molecule came in with an LSD1 selectivity at LSD1 (LSD1 selectivity, MAO-A/MAO-B assayed for selectivity toward LSD1) of over 170 fold. The “LSD1 inhibitory activity” value at LSD1 is reported as “the most potent LSD1 inactivator among the peptides tested in this study”.

Usually IC50 stands for the point on the concentration scale where inhibition reaches its midpoint. Lower therefore signals greater potency in that assay.

The values are drawn from paper PMC6099693, “Design, Synthesis, and In Vitro Evaluation of Novel Histone H3 Peptide-Based LSD1 Inactivators Incorporating α,α-Disubstituted Amino Acids with γ-Turn-Inducing Structures” (Molecules : A Journal of Synthetic Chemistry and Natural …, 2018).
